From article PMC7226860 (ACS Omega, 2020) come the findings set out here.

The structures appear in SMILES notation. ≈ marks a conversion by molar mass, not a printed value.

Assay [1] has as its system K. pneumonia (ATCC: 4415). The assay can be described thus: Agar well diffusion, inhibition zone. The note with it: Klebsiella pneumoniae, read-out: diameter of the inhibition zone, K. pneumonia (ATCC: 4415), Gram (−ve), 15 mg/mL, mean ± SD. It counts as cell-based, Klebsiella pneumonia. (In general: Agar diffusion results depend on both activity and mobility in agar.)
Assay [2] deals with HFB4 human dermal fibroblast cell line. In words: MTT cytotoxicity assay. It counts as cell-based. To be noted: 48 h. In general terms: Tetrazolium dyes change colour on reduction, which living cells bring about.
Assay [3] concerns C. albicans (ATCC: 10231). In words: Agar well diffusion, inhibition zone. It counts as cell-based, Candida albicans. To be noted: for diameter of the inhibition zone: C. albicans (ATCC: 10231), fungi, 15 mg/mL, mean ± SD; for zone of inhibition at 15000 µg/mL: Candida albicans, read-out: diameter of the inhibition zone, C. albicans (ATCC: 10231), fungi, 15 mg/mL, mean ± SD.
Assay [4] deals with S. aureus (ATCC: 6538). The assay can be described thus: Agar well diffusion, inhibition zone. It counts as cell-based, Staphylococcus aureus. To be noted: for zone of inhibition at 15000 µg/mL: Staphylococcus aureus, read-out: diameter of the inhibition zone.
Assay [5] relates to S. mutans (ATCC: 25175). The assay can be described thus: MIC, twofold serial dilution. It counts as cell-based. The note with it: Streptococcus mutans, 24 h.
For assay [6], the system named is P. aeruginosa (ATCC: 27853). The assay can be described thus: Agar well diffusion, inhibition zone. The assay is classed as cell-based, Pseudomonas aeruginosa. The note with it: for zone of inhibition at 15000 µg/mL: Pseudomonas aeruginosa, read-out: diameter of the inhibition zone; for diameter of the inhibition zone: P. aeruginosa (ATCC: 27853), Gram (−ve), agar well diffusion, 15 mg/mL, mean ± SD.

The test system of assay [7] is S. mutans (ATCC: 25175). The assay can be described thus: Agar well diffusion, inhibition zone. The assay is classed as cell-based, Streptococcus mutans. To be noted: Streptococcus mutans, read-out: diameter of the inhibition zone.
Assay [8] has as its system P. aeruginosa (ATCC: 27853). The assay can be described thus: MIC, twofold serial dilution. The assay is classed as cell-based. To be noted: Pseudomonas aeruginosa, 24 h.
Assay [9] concerns E. coli (ATCC: 3008). The assay can be described thus: MIC, twofold serial dilution. It counts as cell-based. The note with it: Escherichia coli, 24 h.
Assay [10] deals with E. coli (ATCC: 3008). In words: Agar well diffusion, inhibition zone. To be noted: Escherichia coli, read-out: diameter of the inhibition zone. The assay is classed as cell-based, Escherichia coli.
Assay [11] deals with K. pneumonia (ATCC: 4415). The assay can be described thus: MIC, twofold serial dilution. The assay is classed as cell-based. To be noted: Klebsiella pneumoniae, 24 h, read after 24 h.
Assay [12] concerns S. aureus (ATCC: 6538). In words: MIC, twofold serial dilution. It counts as cell-based. The note with it: Staphylococcus aureus, 24 h.
For assay [13], the system named is C. albicans (ATCC: 10231). In words: MIC, twofold serial dilution. It counts as cell-based, Candida albicans. The note with it: Candida albicans, 24 h.
For the next assay, the target named is T1, human DHFR (Homo sapiens, UniProt P00374).
T1 sequence (P00374 1-187): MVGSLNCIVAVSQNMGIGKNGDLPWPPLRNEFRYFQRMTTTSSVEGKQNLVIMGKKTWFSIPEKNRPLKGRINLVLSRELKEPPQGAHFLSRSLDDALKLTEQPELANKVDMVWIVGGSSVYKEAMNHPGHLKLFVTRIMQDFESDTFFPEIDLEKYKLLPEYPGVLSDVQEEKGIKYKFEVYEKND
The assay can be described thus: DHFR inhibitor screening kit. It counts as biochemical. The note with it: for inhibition at 0.01 µg/mL / inhibition at 0.1 µg/mL / inhibition at 1 µg/mL / inhibition at 10 µg/mL: read-out: Inhibition of DHFR enzyme.

In the case of `Nc1ccc(S(=O)(=O)Nc2ncccn2)cc1` [SD, sulfadiazine, reference compound], the zone of inhibition at 15000 µg/mL in [1] worked out at 20.4 ± 0.9 mm; with S. aureus (ATCC: 6538) [4], 31.2 ± 2.1 mm; in assay [6], 24 ± 1.4 mm; in the assay on S. mutans (ATCC: 25175) [7], 16.3 ± 1.1 mm; with E. coli (ATCC: 3008) [10] it was 19.8 ± 0.4 mm. In addition, in assay [2], half-maximal inhibition (IC50) required 243 ± 46.1 µg/mL (≈ 969 µM). Besides, the “diameter of the inhibition zone” value in assay [3] was “no activity”. Further, the MIC against S. mutans (ATCC: 25175) [5] was determined as 125 µg/mL (≈ 499 µM); in assay [8] it was 250 µg/mL (≈ 999 µM); in the assay with E. coli (ATCC: 3008) [9], 250 µg/mL (≈ 999 µM); in assay [11] it was 250 µg/mL (≈ 999 µM); against S. aureus (ATCC: 6538) [12] it was 500 µg/mL (≈ 2000 µM).
`CNC(C)C1CCC(N)C(OC2C(N)CC(N)C(OC3OCC(C)(O)C(NC)C3O)C2O)O1` (stereo not shown) [Gentamicin, reference compound]: the zone of inhibition at 15000 µg/mL came out at 32 ± 0.1 mm in [1], 35 ± 0.1 mm in assay [6] and 25 ± 0.1 mm in the assay with E. coli (ATCC: 3008) [10]. For the same molecule, the minimal inhibitory concentration (MIC) in assay [8] was 125 µg/mL (≈ 262 µM); against E. coli (ATCC: 3008) [9] it was 31.2 µg/mL (≈ 65.4 µM); in assay [11], 62.5 µg/mL (≈ 131 µM).
In the case of `CSc1c(C#N)c(N)n(NS(=O)(=O)c2ccccc2)c(=O)c1-c1nc2ccccc2s1` [compound 5a, N-(6-Amino-3-(benzo[d]thiazol-2-yl)-5-cyano-4-(methylthio)-2-oxopyridin-1(2H)-yl)benzenesulfonamide], the zone of inhibition at 15000 µg/mL in [1] was 20.6 ± 1 mm; in assay [3], 21 to 28 mm; in the assay with S. mutans (ATCC: 25175) [7] it was 17.6 ± 1.5 mm; in the assay with E. coli (ATCC: 3008) [10] it was 26 ± 0.5 mm. The minimal inhibitory concentration (MIC) came to 62.5 µg/mL (≈ 133 µM) in assay [13], 1000 µg/mL (≈ 2130 µM) against S. mutans (ATCC: 25175) [5], 62.5 µg/mL (≈ 133 µM) in the assay with E. coli (ATCC: 3008) [9] and 1000 µg/mL (≈ 2130 µM) in [11]. For the same molecule, the 50% inhibitory concentration (IC50) on human DHFR is 554 nM; in assay [2], 167 ± 21.8 µg/mL (≈ 356 µM). In addition, the inhibition at 0.01 µg/mL at human DHFR turned out to be 30%. Besides, the inhibition at 0.1 µg/mL at human DHFR was 41.8%. Also, on human DHFR, the inhibition at 1 µg/mL amounted to 57.3%. For the same molecule, at human DHFR, the inhibition at 10 µg/mL came out at 75.9%. The “diameter of the inhibition zone” value is on record as 21.0 ± 1.0 mm in assay [3]; “−” in the assay with S. aureus (ATCC: 6538) [4] (S. aureus (ATCC: 6538), Gram (+ve), agar well diffusion, 15 mg/mL, mean ± SD); “−” in [6].
Turning to `Nc1n[nH]c2c(-c3nc4ccccc4s3)c(=O)n(NS(=O)(=O)c3ccccc3)c(N)c12` [compound 11a, N-(3,4-Diamino-7-(benzo[d]thiazol-2-yl)-6-oxo-1H-pyrazolo[4,3-c]pyridin-5(6H)-yl)benzenesulfonamide], the zone of inhibition at 15000 µg/mL is 15.2 ± 0.5 mm in assay [1]; 21 to 28 mm in [3]; 35.2 ± 1.5 mm with S. aureus (ATCC: 6538) [4]; 22.3 ± 0.5 mm in the assay on S. mutans (ATCC: 25175) [7]; 26 ± 0.5 mm with E. coli (ATCC: 3008) [10]. Further, the minimal inhibitory concentration (MIC) in assay [13] came out at 125 µg/mL (≈ 276 µM); in the assay with S. mutans (ATCC: 25175) [5] it was 1000 µg/mL (≈ 2210 µM); against E. coli (ATCC: 3008) [9], 31.2 µg/mL (≈ 68.9 µM); in assay [11], 125 µg/mL (≈ 276 µM); with S. aureus (ATCC: 6538) [12], 31.2 µg/mL (≈ 68.9 µM). For the same molecule, the half-maximal inhibitory concentration (IC50) was 441 nM against human DHFR and 234 ± 20.7 µg/mL (≈ 515 µM) in assay [2]. The inhibition at 0.01 µg/mL at human DHFR amounted to 29.6%. The inhibition at 0.1 µg/mL on human DHFR is 44.1%. The inhibition at 1 µg/mL on human DHFR was 67%. Moreover, the inhibition at 10 µg/mL on human DHFR turned out to be 71.8%. The “diameter of the inhibition zone” value is 21.0 ± 1.7 mm in [3] and “−” in [6].
Take `CSc1c(C#N)c(N)n(NS(=O)(=O)c2ccc(C)cc2)c(=O)c1-c1nc2ccccc2s1` [compound 5b, N-(6-Amino-3-(benzo[d]thiazol-2-yl)-5-cyano-4-(methylthio)-2-oxopyridin-1(2H)-yl)-4-methylbenzenesulfonamide]: the zone of inhibition at 15000 µg/mL in assay [1] is 25.6 ± 1.1 mm; with S. aureus (ATCC: 6538) [4], 30.3 ± 0.5 mm; in assay [6] it was 23.3 ± 0.5 mm; in the assay on S. mutans (ATCC: 25175) [7] it was 18.6 ± 1 mm; in the assay with E. coli (ATCC: 3008) [10], 21.3 ± 3 mm. The half-inhibitory concentration (IC50) at human DHFR was 620 nM; in assay [2], 146 ± 27 µg/mL (≈ 301 µM). The inhibition at 0.01 µg/mL on human DHFR amounted to 19.8%. Also, the inhibition at 0.1 µg/mL at human DHFR was 37.4%. Also, the inhibition at 1 µg/mL at human DHFR stood at 65%. In addition, the inhibition at 10 µg/mL on human DHFR was found to be 79.4%. Also, the “diameter of the inhibition zone” value in [3] was “−”. In addition, the MIC against S. mutans (ATCC: 25175) [5] was found to be 1000 µg/mL (≈ 2070 µM); in assay [8], 1000 µg/mL (≈ 2070 µM); in the assay with E. coli (ATCC: 3008) [9] it was 125 µg/mL (≈ 258 µM); in assay [11] it was 1000 µg/mL (≈ 2070 µM); with S. aureus (ATCC: 6538) [12], 250 µg/mL (≈ 517 µM).

The IC50 is the concentration that inhibits the measured activity by half. Read a high IC50 as a need for much substance. Broadly, the MIC is the lowest concentration that inhibits growth of the organism. As a reminder, the inhibition is how much of the control response was suppressed.
